The values that follow come from paper PMC5838106, “Cathelicidin promotes inflammation by enabling binding of self-RNA to cell surface scavenger receptors” (Scientific Reports, 2018).

Holding throughout (assay type): cell-based, human
The test system of one assay is NHEKs. Description: Cytokine mRNA expression in NHEKs stimulated with cathelicidin peptide and dsRNA (quantitative real-time PCR). As to conditions: for inhibition of the expression of inflammatory cytokines induced by LL37 and U1 RNA: MDC 200 μM, Pitstop-2 25 μM, dynasore 80 μM for 30 minutes. (In qPCR the cycle at which signal appears reflects the starting amount.)

For a further assay, the system named is THP1 cells. Description: Cytokine expression in PMA-treated THP1 cells stimulated with cathelicidin peptide and U1 RNA. As to conditions: PMA-treated THP1; MDC 200 μM, Pitstop-2 25 μM, dynasore 80 μM for 30 minutes, LL37 3 μM and U1 RNA 12.5 μg/mL overnight; n = 3. On the procedure: Figure 1 Inflammatory activity of cathelicidin can be dissociated from antimicrobial function (a) Transcriptomic analysis by RNASeq of primary cultures of normal human epidermal keratinocytes (NHEKs) treated with LL37 (2.5 μM) with or without U1 RNA (2.5 μg/mL) for 24 hours. Shown are gene sets induced > 2 fold over vehicle, and after treatment with LL37, U1 RNA, or the combination of LL37 + U1 RNA. (b) Gene Ontology analysis of gene sets from (a). The number of genes related to each biological process is indicated in parentheses. (c) Amino acid sequence of synthetic cathelicidin peptides used in this study. (d) Antimicrobial assay of cathelicidin peptides against group A streptococcus (GAS). GAS were incubated with various concentrations of each peptide (0–25 μM) for 6 hours, then surviving colonies counted after plating on Todd Hewitt Broth gel. (e) IFN-β1 mRNA abundance and (f) IL-6 mRNA abundance in NHEKs after treatment with cathelicidin peptides (2.5 μM) for 10 minutes, then stimulated with U1 RNA (2.5 μg/mL) for a further 6 hours. (n = 3). (g) IFN-β1 mRNA abundance and (h) IL-6 mRNA abundance in […] (PMA)-treated THP1 cells after treatment with cathelicidin peptides (3 μM) for 10 minutes, then stimulated with U1 RNA (12.5 μg/mL) overnight. (n = 3). Data presented are from one representative experiment of at least two independent experiments. Error bars are SEM of three biological replicates. *P < 0.05, **P < 0.01, ***P < 0.001 by two-way ANOVA with Bonferroni’s post-hoc test. See also Fig. S1.
Primary neonatal human epidermal keratinocytes (NHEKs) was purchased from ThermoFisher Scientific. NHEKs were grown in serum free EpiLife medium supplemented with 0.06 mM CaCl2, EpiLife Defined growth supplements (EDGS) (ThermoFisher Scientific) and antibiotics, and passage 3–5 cells were used for experiment. Cells at 60–80% confluence were starved overnight without EDGS prior to treatment. THP1 was purchased from American Type Culture Collection (ATCC) (Manassas, VA). THP1 was cultured in RPMI-1640 (Sigma) supplemented with 10% Hyclone fetal calf serum (Thermofisher Scientific), and antibiotics, and passage 3–5 cells were used for experiment. Cells at 60–80% confluence were differentiated by Phorbol 12-myristate 13-acetate (PMA, Sigma) for 24 hours and then starved overnight without Hyclone fetal calf serum prior to treatment.
RNA was isolated from NHEKs using Purelink RNA isolation columns (ThermoFisher Scientific) according to the manufacturer’s instructions. RNA was quantified using a Nanodrop spectrophotometer (ThermoFisher Scientific), and up to 500 ng of RNA was reverse-transcribed using the iScript cDNA synthesis kit (Bio-Rad, Irvine, CA). Quantitative real-time PCR reactions were run on a CFX96 real-time detection system (Bio-Rad) using gene-specific primers and TaqMan probes (ThermoFisher Scientific). PCR primers and probes are shown on Table S2.

For a further assay, the system named is scavenger receptors. As to the kind of experiment: Proximity ligation assay between U1 RNA and the indicated scavenger receptors. As to conditions: NHEKs, 4 °C, 1 hour; Fig. 3d. On the procedure: Figure 3 Cathelicidin enables dsRNA to associate with scavenger receptors. (a) Proximity ligation assay for SR-B1 and U1 RNA. NHEKs were cultured with various cathelicidin peptides (2.5 μM) for 10 minutes, then with biotinylated U1 RNA (2.5 μg/mL) at 4 °C for 1 hour before physical proximity of SR-B1 and U1 RNA was determined using a fluorescence-based PLA that produces a red fluorescent signal. Nuclei (blue) are counterstained with DAPI. Scale bar represents 10 μm. (b) Signal count of (a) in 5 visual fields. (c) Proximity ligation assay as in (a) but reaction is detecting proximity of LL37 and SR-A6. Scale bar represents 100 μm. (d) Signal count of proximity ligation assay performed as in (a), but between U1 RNA and the indicated scavenger receptors, each count is PLA complexes observed in 5 visual fields. (e) Skin sections from healthy subject (control), or lesional skin from a psoriasis patient (Psoriasis) were fixed and PLA performed for LL37 and SR-B1. […]
NHEKs seeded into 8 chamber slides (Thermo Fisher Scientific) were incubated with various combination of U1 RNA, poly(I:C), cathelicidin peptides, and fucoidan for 1 hour at 4 °C allowing binding, but not internalization. […] Fluorescent PLA signals were evaluated using fluorescence microscopy (described above). Signals are counted by Duolink ImageTool software version 1.0.1.2 (Sigma-aldrich).

Setting [1] is: LL37 2.5 μM and U1 RNA 2.5 μg/mL 6 hours, n = 3.

For the compound pertussis toxin, the “effect on expression of IL-6 induced by LL37 and U1 RNA” value in the assay with NHEKs (pertussis toxin 0.5 μg/mL or WRW4 1 μM for 1 hour, then LL37 2.5 μM and U1 RNA 2.5 μg/mL 6 hours, n = 3) was “did not decrease”. For `O=C(N/N=C/c1ccc(O)c(O)c1)c1cc2ccccc2cc1O` [dynasore], the “inhibition of the expression of inflammatory cytokines induced by LL37 and U1 RNA” value (from here on “inhibition … by LL37 and U1 RNA”) with THP1 cells and in the assay on NHEKs (setting [1]) was “significant inhibition” throughout. Take `O=C1NC(=NS(=O)(=O)c2cccc3ccccc23)S/C1=C\c1ccc(Br)cc1` [Pitstop-2^TM]: the “inhibition … by LL37 and U1 RNA” value in the assay with THP1 cells and in the assay with NHEKs (setting [1]) was “significant inhibition” throughout.

For `Oc1ccc2ccccc2c1SSc1c(O)ccc2ccccc12` [IPA-3], in the assay on NHEKs (IPA-3 2.8 nM for 30 minutes, LL37 2.5 μM and U1 RNA 2.5 μg/mL 6 hours, n = 3), the “effect on IFN-β1 and IL-6 expression induced by LL37 and U1 RNA” value is “did not inhibit”. For the compound Fucoidan, the “effect on LL37-dependent binding of U1 RNA to scavenger receptors (PLA)” value in the assay on scavenger receptors is “significantly diminished binding”. For the same compound, the “inhibition of the capacity of LL37 to induce cytokines combined with U1 RNA” value in the assay with NHEKs (various concentrations of fucoidan, LL37 2.5 μM and U1 RNA 2.5 μg/mL 6 hours) was “potently inhibited”. In the assay with NHEKs (various concentrations of fucoidan, LL37 2.5 μM and poly(I:C) 0.3 μg/mL 6 hours), the “inhibition of the capacity of LL37 to induce cytokines combined with poly(I:C)” value was “potently inhibited”.

Regarding `CN(C)c1cccc2c(S(=O)(=O)NCCCCCN)cccc12` [MDC, Monodansylcadaverine], the “inhibition … by LL37 and U1 RNA” value in the assay with THP1 cells and in the assay on NHEKs (setting [1]) was “significant inhibition” throughout.
